Experimental data taken from US8765814B2, “N-hydroxyformamide derivative and medicament containing same” (Kaken Pharmaceutical Co., Ltd., priority 2010, dated 2014).

Columns and labels:
ADAM10 = target: T1, ADAM10 (Homo sapiens, UniProt O14672); assay: ADAM10 inhibition test; format: biochemical; conditions: recombinant ADAM10 (cDNA from THP-1 cells), fluorescent synthetic substrate Nma-[…]Dnp-D-Arg-NH2, 25° C., 5 hours; read-out: IC50 Value (50% inhibitory concentration against ADAM10)
T1 construct: made in house; host or cells: mammal cells or insect cells (not specified which)
T1 sequence (O14672 214-748): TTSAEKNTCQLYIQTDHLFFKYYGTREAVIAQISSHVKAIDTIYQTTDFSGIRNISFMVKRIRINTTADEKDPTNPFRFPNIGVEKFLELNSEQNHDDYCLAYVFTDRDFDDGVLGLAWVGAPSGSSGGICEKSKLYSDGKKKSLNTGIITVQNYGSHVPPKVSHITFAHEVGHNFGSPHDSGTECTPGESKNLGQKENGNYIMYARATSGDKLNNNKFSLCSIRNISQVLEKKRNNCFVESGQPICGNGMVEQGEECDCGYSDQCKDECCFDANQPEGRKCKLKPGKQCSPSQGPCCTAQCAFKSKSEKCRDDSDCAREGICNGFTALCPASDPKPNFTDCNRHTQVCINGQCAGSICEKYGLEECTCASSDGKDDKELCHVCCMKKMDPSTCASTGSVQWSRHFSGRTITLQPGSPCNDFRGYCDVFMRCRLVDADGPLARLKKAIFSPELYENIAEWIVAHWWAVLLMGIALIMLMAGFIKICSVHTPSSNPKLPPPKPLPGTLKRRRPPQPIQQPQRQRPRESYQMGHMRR
Excerpt: The cDNA of ADAM10 was obtained from THP-1 cells in the usual way, and this was inserted into an expression vector, and thereafter the vector was transformed in mammal cells or insect cells to thereby make the cells express ADAM10. In the ADAM10 inhibition test, ADAM10 obtained in the manner as above was used as an enzyme, and a fluorescent synthetic substrate Nma (N-methylanthranylic acid)-[…]Dnp (dinitrophenyl)-D-Arg-NH2 was used as the substrate. Using these in the test, the ADAM10 activity in the presence or absence of the test substance was measured. The method of ADAM10 inhibition test is mentioned below.
Concretely, 90 μl of an enzyme liquid prepared using an assay buffer A (50 mM tris-hydrochloride buffer (pH 7.5) containing 200 mM sodium chloride, 5 mM calcium chloride, 10 μM zinc sulfate, 0.004% sodium azide, and 2 mg/mL bovine serum albumin), and 90 μL a fluorescent synthetic substrate as prepared to be 20 μM in an assay buffer B (50 mM tris-hydrochloride buffer (pH 7.5) containing 200 mM sodium chloride, 5 mM calcium chloride, 10 μM zinc sulfate, 0.004% sodium azide, and 0.05% PLURONIC F-68) were mixed, and reacted at 25° C. for 5 hours. Subsequently, using a fluorescent intensity meter (Fluoroskan Ascent), the reaction liquid was analyzed at an excitation wavelength of 355 nm and at a measuring wavelength of 460 nm to determine the enzymatic activity therein.
(§1) From the enzymatic activity in the presence or absence of the test compound, the inhibitory percentage was determined, and the 50% inhibitory concentration (IC50) of the test compound was calculated.
The 50% inhibitory concentration against ADAM10 of the N-hydroxyformamide derivative of the invention, as determined in this test, was shown in Table 2.

ADAM17 = target: T2, ADAM17 (Homo sapiens, UniProt P78536); assay: ADAM17 inhibition test; format: biochemical; conditions: recombinant ADAM17 (cDNA from THP-1 cells), fluorescent synthetic substrate Nma-[…]Dnp-D-Arg-NH2, 37° C., 1.5 hours; read-out: IC50 Value (50% inhibitory concentration against ADAM17)
T2 construct: made in house; host or cells: mammal cells or insect cells (not specified which)
T2 sequence (P78536 215-824): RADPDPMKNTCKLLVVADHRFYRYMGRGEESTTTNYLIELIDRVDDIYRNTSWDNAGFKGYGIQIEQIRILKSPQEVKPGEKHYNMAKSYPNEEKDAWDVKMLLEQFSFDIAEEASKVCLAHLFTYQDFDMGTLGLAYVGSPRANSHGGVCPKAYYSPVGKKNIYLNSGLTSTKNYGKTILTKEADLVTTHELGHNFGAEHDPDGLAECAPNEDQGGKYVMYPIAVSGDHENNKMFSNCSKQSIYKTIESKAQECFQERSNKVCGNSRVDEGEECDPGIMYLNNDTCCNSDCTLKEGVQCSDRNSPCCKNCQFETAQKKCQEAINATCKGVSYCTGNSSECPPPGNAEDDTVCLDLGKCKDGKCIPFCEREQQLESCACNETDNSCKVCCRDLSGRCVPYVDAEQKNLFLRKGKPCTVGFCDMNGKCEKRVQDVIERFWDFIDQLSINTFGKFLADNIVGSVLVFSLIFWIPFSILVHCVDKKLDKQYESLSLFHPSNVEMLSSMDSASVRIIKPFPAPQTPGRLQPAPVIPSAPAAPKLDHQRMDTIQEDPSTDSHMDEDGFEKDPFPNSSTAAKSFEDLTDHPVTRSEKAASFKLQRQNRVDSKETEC
Excerpt: The nucleotide sequence of ADAM17 was reported by Moss et al. (Moss, M. L. et al., Nature 1997, 385, 733-736). Accordingly, the cDNA was obtained from THP-1 cells of a human monocytic cell line in the usual way, and this was inserted into an expression vector, and thereafter the vector was transformed in mammal cells or insect cells to thereby make the cells express ADAM17.
In the ADAM17 inhibition test, ADAM17 obtained in the manner as above was used as an enzyme, and a fluorescent synthetic substrate Nma (N-methylanthranylic acid)-[…]Dnp (dinitrophenyl)-D-Arg-NH2 containing the ADAM17-cleaved sequence of a membrane-bound TNF was used as the substrate. Using these in the test, the ADAM17 activity in the presence or absence of the test substance was measured. The method of ADAM17 inhibition test is mentioned below.
Concretely, 90 μl of an enzyme liquid as prepared to have 14 units in an assay buffer A (50 mM tris-hydrochloride buffer (pH 7.5) containing 200 mM sodium chloride, 5 mM calcium chloride, 10 μM zinc sulfate, 0.004% sodium azide, and 2 mg/mL bovine serum albumin) (the amount of enzyme capable of decomposing 1 pmol of substrate at 25° C. for 1 minute was defined to be 1 unit), and 90 μL a fluorescent synthetic substrate as prepared to be 20 μM in an assay buffer B (50 mM tris-hydrochloride buffer (pH 7.5) containing 200 mM sodium chloride, 5 mM calcium chloride, 10 μM zinc sulfate, 0.004% sodium azide, and 0.05% PLURONIC F-68) were mixed, and reacted at 37° C. for 1.5 hours. Subsequently, using a fluorescent intensity meter (Fluoroskan Ascent), the reaction liquid was analyzed at an excitation wavelength of 355 nm and at a measuring wavelength of 460 nm to determine the enzymatic activity therein.
as §1
The 50% inhibitory concentration against ADAM17 of the N-hydroxyformamide derivative of the invention, as determined in this test, was shown in Table 1.

Row | Compound | IC50 (ADAM10) [µM] | IC50 (ADAM17) [µM]
1 | CC#CCOc1ccc(S(=O)(=O)CC(c2ccc(CNC(=O)COC)cc2)N(O)C=O)cc1 (centres unmarked) [Compound I-3, N-{4-[2-(4-But-2-ynyloxybenzenesulfonyl)-1-(formylhydroxyamino)ethyl]benzyl}-2-methoxyacetamide] | 0.042 | 0.0082
2 | CC#CCOc1ccc(S(=O)(=O)CC(c2ccc(CN3CCOCC3)cc2)N(O)C=O)cc1 (centres unmarked) [Compound I-6, N-[2-(4-But-2-ynyloxybenzenesulfonyl)-1-(4-morpholin-4-ylmethylphenyl)ethyl]-N-hydroxyformamide] | 0.07 | 0.018
3 | CC#CCOc1ccc(S(=O)(=O)CC(c2ccc(CNC(=O)c3ccccc3)cc2)N(O)C=O)cc1 (centres unmarked) [Compound I-5, N-{4-[2-(4-But-2-ynyloxybenzenesulfonyl)-1-(formylhydroxyamino)ethyl]benzyl}benzamide] | 0.019 | 0.0072
4 | CC#CCOc1ccc(S(=O)(=O)CC(c2ccc(CN(CC)CC)cc2)N(O)C=O)cc1 (centres unmarked) [Compound I-1, N-[2-(4-But-2-ynyloxybenzenesulfonyl)-1-(4-diethylaminomethylphenyl)ethyl]-N-hydroxyformamide] | 0.013 | 0.0052
5 | CC#CCOc1ccc(S(=O)(=O)CC(c2ccc(CN(C)C)cc2)N(O)C=O)cc1 (centres unmarked) [Compound I-2, N-[2-(4-But-2-ynyloxybenzenesulfonyl)-1-(4-dimethylaminomethylphenyl)ethyl]-N-hydroxyformamide] | 0.022 | 0.0072
6 | CCC#CCOc1ccc(S(=O)(=O)CC(c2ccc(CN3CCOCC3)cc2)N(O)C=O)cc1 (centres unmarked) [Compound I-7, N-Hydroxy-N-[1-(4-morpholin-4-ylmethylphenyl)-2-(4-pent-2-ynyloxybenzenesulfonyl)ethyl]formamide] | 0.09 | 0.055
7 | CC#CCOc1ccc(S(=O)(=O)CC(c2ccc(CNS(C)(=O)=O)cc2)N(O)C=O)cc1 (centres unmarked) [Compound I-4, N-{4-[2-(4-But-2-ynyloxybenzenesulfonyl)-1-(formylhydroxyamino)ethyl]benzyl}methanesulfonamide] | 0.04 | 0.0058
